Values quoted from earlier work as cited in patent publication US7645795B2, “Method for treating amyotrophic lateral sclerosis” (BodyBio, Inc, priority 2004, dated 2010).

Tested on: ALS patients

In the case of Nc1nc2ccc(OC(F)(F)F)cc2s1 [riluzole], the “Extension of lifespan of ALS patients” value is listed as “approximately 3 months” and the Hepatic effect is listed as “evokes hepatic stress upon elevation of liver enzymes”.
